Converted amounts (≈) assume the structure as drawn. Numbered stars: 1 amine (or outer) side, 2 acyl side, 3 side chain; on linkers, the order of the positions; unused ones are H or OH. Bridge positions count the residues as written; N and C are the ends. Square brackets hold non-standard residues; d marks the D form. Peptide text beside a SMILES is read from it. Phe(3R-OH) = O=C([C@@H](N[*:1])[C@H](O[*:3])c1ccccc1)[*:2]; Asn(3S-OH) = NC(=O)[C@@H](O)[C@H](N)C(=O)O; Leu(3R-OH) = CC(C)[C@@H](O)[C@H](N)C(=O)O; aThr = C[C@H](O)[C@H](N)C(=O)O
What was measured:
[1] = tested on: Staphylococcus aureus; assay: Staphylococcus aureus acute mouse mastitis model; assay type: in vivo, lactating CD-1 mice
Protocol: The efficacy of lysobactin (formulated in a hydrogel at pH 4.7) was tested in a Staphylococcus aureus acute mouse mastitis model established at the University of Sherbrooke, Canada (Broui-llette et al, Vet. Microbiol. (2004) 4:253-262), that is hereby incorporated by reference. Both the abdominal mammary glands (L4 and R4) of lactating CD-1 mice were intramammarily infected with 100 CFU (colony forming units) of S. aureus. The mice were treated intramammarily with lysobactin four hours after infection. Each treatment group contained at least 3 mice (6 quarters) 14 hours later (18 hours after inoculation) mice were sacrificed, mammary glands were harvested and the CFU content evaluated by plating 10-fold serial dilutions of mammary gland homogenates. The CFU content was expressed as log10 count. The detection limit was 200 CFU/g of gland. Glands with less than 200 CFU/g were regarded as cleared.

[2] = tested on: Streptococcus agalactiae; assay: microbroth dilution MIC (CLSI), MIC90; assay type: cell-based
Protocol: (§1) The in vitro antibacterial activity of lysobactin against common mastitis pathogens such as Staphylococcus aureus, Coagulase-negative staphylococci, Streptococcus uberis, Streptococcus dvsgalactiae, Streptococcus agalactiae, Trueperella pyogenes, Escherichia coli, or Klebsiella pneumoniae was assessed by microbroth dilution MIC methodology as described by the Clinical and Laboratory Standards Institute (CLSI) in order to obtain the Minimal Inhibitory Concentration (MIC), which is defined as the lowest concentration of a substance that prevents visible growth of a bacterium. The results expressed as MIC90 are summarized in the following table, where the MIC90 is defined as the concentration at which the growth of at least 90% of the strains of a given species is inhibited.

[3] = tested on: Coagulase-negative staphylococci; assay: microbroth dilution MIC (CLSI), MIC90; assay type: cell-based
Protocol: as §1

[4] = tested on: Streptococcus uberis; assay: microbroth dilution MIC (CLSI), MIC90; assay type: cell-based
Protocol: as §1

[5] = tested on: Escherichia coli; assay: microbroth dilution MIC (CLSI), MIC90; assay type: cell-based
Protocol: as §1

[6] = tested on: Streptococcus dysgalactiae; assay: microbroth dilution MIC (CLSI), MIC90; assay type: cell-based
Protocol: as §1

[7] = tested on: Trueperella pyogenes; assay: microbroth dilution MIC (CLSI), MIC90; assay type: cell-based
Protocol: as §1

[8] = tested on: Klebsiella pneumoniae; assay: microbroth dilution MIC (CLSI), MIC90; assay type: cell-based
Protocol: as §1

[9] = tested on: Staphylococcus aureus; assay: microbroth dilution MIC (CLSI), MIC90; assay type: cell-based
Protocol: as §1

[10] = tested on: Streptococcus uberis; assay: dairy cow udder infection model with S. uberis; assay type: in vivo, lactating dairy cows
Protocol: Seventy-two healthy lactating dairy cows were experimentally infected with the mastitis pathogen Streptococcus uberis on two udder quarters per cow. […] Treatments were randomly assigned to 41 (clinical) or 37 (microbiological) udder quarters in total, either 50 mg lysobactin per quarter (in 15/13 quarters), or 150 mg lysobactin (in 15/14 quarters), or Ubrolexin® (in 11/10 quarters) as positive control. The diseased quarters were treated with these intramammary formulations two times with an interval of 24 hours in between. Udders were clinically examined and milk samples were taken before treatment and several times after that until three weeks after the second administration. Milk was inspected visually for deviation in its consistency and samples were evaluated for presence of the challenge organism to confirm the diagnosis mastitis. Diseased udder quarters were considered microbiologically cured when Streptococcus uberis found in milk samples shortly before treatment could not be isolated from any milk sample taken within the time period between the seventh and the twenty-first day after the second treatment. Clinical cure was achieved when the local symptoms of mastitis completely disappeared or were at the most of very slight nature.

[11] = tested on: S. aureus; assay: resistance development during serial passaging; assay type: cell-based, Staphylococcus aureus; settings: constant sub-MIC exposure, 33 days
Protocol: The appearance of MIC changes during constant exposure of bacteria to sub-MIC concentrations of lysobactin was assessed by serial passaging experiments. On the first day the MICs of S. aureus and S. uberis were assessed by microbroth dilution MIC methodology as described by the Clinical and Laboratory Standards Institute (CLSI). Each day for the following 33 consecutive days, bacteria from the well containing the highest concentrations allowing full growth were collected and used to inoculate new 96-well plates and to assess the MIC during constant exposure to lysobactin. The MIC obtained on each day was plotted over time. Rifampicin, which is known to result in quick changes of the MIC, was used as positive control.

[12] = tested on: Streptococcus uberis; assay: Streptococcus uberis challenge mouse mastitis model; assay type: in vivo, lactating mice; settings: 100, 200, 400 or 800 μg/gland hydrogel, 18 h after infection; all glands, with one exception in the highest dosing group
Protocol: The efficacy of lysobactin (formulated in a hydrogel at pH 4.7) was tested in a Streptococcus uberis challenge mouse mastitis model. Twenty lactating mice were experimentally infected on the fourth pair of mammary glands with S. uberis around 12-15 days after birth of the offspring. Four hours after inoculation, groups of four mice were treated on the same glands with lysobactin at 100, 200, 400, or 800 μg/gland formulated as hydrogel. The fifth group was treated solely with the hydrogel vehicle as negative control. Eighteen hours after infection the animals were euthanized, the glands were removed, homogenized, and bacterial colony forming units (CFUs) were determined by established microbiological methods. Subsequently CFU/mL homogenate as well as CFU/g of gland were calculated. The detection limit was approximately 100 CFU/g of gland. Antimicrobial activity of lysobactin against Strep uberis was determined by comparison of the mean CFUs/gland of the different dosing groups and the negative control group.

[13] = tested on: Staphylococcus aureus ATCC 29740; assay: spontaneous resistance development; assay type: cell-based; settings: for obtained colonies: plated CFU 3.52 × 10^9
Protocol: (§2) The frequency of spontaneous resistance development was assessed by plating at least 1×10^9 colony forming units of the respective bacterial strain on agar plates containing lysobactin at either 4× or 8× the MIC and incubating the plates at 35+/−2° C. […] The resulting number is defined as the spontaneous resistance frequency, and is an indication for the likelihood of resistant isolates to appear during an infection.

[14] = tested on: Streptococcus uberis ATCC 27958; assay: spontaneous resistance development; assay type: cell-based; settings: for obtained colonies: plated CFU 2.4 × 10^10
Protocol: as §2

[15] = 150 mg per quarter, Day 7 after second treatment

## CC[C@H](C)[C@@H]1NC(=O)[C@@H](CCCNC(=N)N)NC(=O)[C@H](CC(C)C)NC(=O)[C@H]([C@H](O)C(C)C)NC(=O)[C@@H](NC(=O)[C@H](CC(C)C)NC(=O)[C@H](N)CC(C)C)[C@@H](c2ccccc2)OC(=O)[C@H](CO)NC(=O)[C@H]([C@H](O)C(N)=O)NC(=O)CNC(=O)[C@H]([C@H](C)O)NC1=O [lysobactin] (H-[dL]L[Phe(3R-OH)][Leu(3R-OH)]L[dR]I[aThr]G[Asn(3S-OH)]S; ester 3-C)
[1]; 50 μg intramammary, hydrogel pH 4.7, 4 h after infection, glands harvested 18 h after inoculation
  reduction of median CFU content of mammary glands: ca. 4 log10
[1]; 400 μg intramammary, hydrogel pH 4.7, cleared = less than 200 CFU/g of gland
  clearance of infection from glands: eliminates the infection from all infected glands
[2]
  MIC90: 0.25 µg/mL (≈ 0.196 µM)
[3]
  MIC90: 0.5 µg/mL (≈ 0.392 µM)
[4]
  MIC90: 0.125 µg/mL (≈ 0.0979 µM)
[5]
  MIC90: > 16 µg/mL
[6]
  MIC90: 0.25 µg/mL (≈ 0.196 µM)
[7]
  MIC90: 0.5 µg/mL (≈ 0.392 µM)
[8]
  MIC90: > 16 µg/mL
[9]
  MIC90: 0.5 µg/mL (≈ 0.392 µM)
[10]; 50 mg per quarter, 2 treatments 24 h apart, Day 7 after second treatment
  microbiological cure rate: 84.6%
[10]; 50 mg per quarter, Day 7 after second treatment
  local clinical cure rate: 86.7%
[10]; 50 mg per quarter, Day 21 after second treatment
  microbiological cure rate: 92.31%
[10]; [15]
  local clinical cure rate: 86.7%
  microbiological cure rate: 71.4%
[10]; 150 mg per quarter, Day 21 after second treatment
  microbiological cure rate: 85.71%
[11]
  MIC change during serial passaging: remain constant
[12]
  bacterial counts in glands: < 10^2 CFU/g
[13]; 24 h, 2 μg/ml (4x MIC)
  frequency of resistance: <2.84 × 10^−10
  obtained colonies: 0
[13]; 24 h, 4 μg/ml (8x MIC)
  frequency of resistance: <2.84 × 10^−10
  obtained colonies: 0
[13]; 48 h, 2 μg/ml (4x MIC)
  frequency of resistance: <2.84 × 10^−10
  obtained colonies: 0
[13]; 48 h, 4 μg/ml (8x MIC)
  frequency of resistance: <2.84 × 10^−10
  obtained colonies: 0
[14]; 24 h, 2 μg/ml (4x MIC)
  frequency of resistance: <4.17 × 10^−11
  obtained colonies: 0
[14]; 24 h, 4 μg/ml (8x MIC)
  frequency of resistance: <4.17 × 10^−11
  obtained colonies: 0
[14]; 48 h, 2 μg/ml (4x MIC)
  frequency of resistance: <4.17 × 10^−11
  obtained colonies: 0
[14]; 48 h, 4 μg/ml (8x MIC)
  frequency of resistance: <4.17 × 10^−11
  obtained colonies: 0
